Legend:
[1] = test system: Triticum aestivum (TRZAS); experiment: In vivo analyses Part C: drought stress, appearance vs stressed control plants in categories (TRZAS); design: key: 0: no positive effect; 10: slight positive effect; 20: clear positive effect; 30: strong positive effect; conditions: appearance vs stressed control plants after recovery phase, efficacy range of 3-4 pots
Procedure: Seeds of monocotyledonous and dicotyledonous crop plants were sown in sandy loam in plastic or wood-fibre pots, covered with soil or sand and cultivated in a greenhouse under good growth conditions. The test plants were treated at the early leaf stage (BBCH10-BBCH13). To assure uniform water supply before commencement of stress, the potted plants were supplied with water by dam irrigation prior to substance application. The inventive compounds were first formulated as wettable powders (WP) or dissolved in a solvent mixture. The further dilution was effected with water supplemented with 0.2% wetting agent (e.g. agrotin). The finished spray liquor was sprayed onto the green parts of the plant at an equivalent water application rate of 600 I/ha. Substance application was followed immediately by stress treatment of the plants. For this purpose, the wood-fibre pots were transferred in plastic inserts in order to prevent them from subsequently drying out too quickly. Drought stress was induced by gradual drying out under the following conditions: “Day”: 14 hours with illumination at 26-30° C. “Night”: 10 hours without illumination at 18-20° C. The duration of the respective stress phases was guided mainly by the condition of the stressed control plants. It was ended (by re-irrigating and transfer to a greenhouse with good growth conditions) as soon as irreversible damage was observed on the stressed control plants. The end of the stress phase was followed by an about 4-7-day recovery phase, during which the plants were once again kept under good growth conditions in a greenhouse. The duration of the recovery phase was guided mainly by when the trial plants had attained a state which enabled visual scoring of potential effects, and was therefore variable. Once this juncture had been reached, the appearance of the plants treated with test substances was recorded in comparison to the stressed control plants by the following categories: [table] For each substance and dosage, 3-4 pots were treated and evaluated. TRZAS=Triticum aestivum

[2] = target: T1, phosphatase ABI1 via the co-regulator RCAR11/PYR1 (Arabidopsis thaliana, UniProt O49686+P49597); experiment: In vitro assay: inhibition of the phosphatase ABI1 via the co-regulator RCAR11/PYR1, MUP dephosphorylation, fluorescence; type: biochemical; design: inhibition: dose or concentration left out as unconfirmed; conditions: MUP dephosphorylation, fluorescence 460 nm; for ABI1 inhibition: concentration of 5 mM of the substance in a solution of DMSO and water; for inhibition: read-out: ABI1 inhibition
T1 sequence (O49686 1-191): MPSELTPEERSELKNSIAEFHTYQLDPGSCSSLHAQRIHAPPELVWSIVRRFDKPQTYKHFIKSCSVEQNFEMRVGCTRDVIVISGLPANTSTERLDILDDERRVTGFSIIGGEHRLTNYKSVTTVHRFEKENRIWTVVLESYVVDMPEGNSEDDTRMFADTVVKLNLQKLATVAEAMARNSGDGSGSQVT
T1 sequence (P49597 1-434): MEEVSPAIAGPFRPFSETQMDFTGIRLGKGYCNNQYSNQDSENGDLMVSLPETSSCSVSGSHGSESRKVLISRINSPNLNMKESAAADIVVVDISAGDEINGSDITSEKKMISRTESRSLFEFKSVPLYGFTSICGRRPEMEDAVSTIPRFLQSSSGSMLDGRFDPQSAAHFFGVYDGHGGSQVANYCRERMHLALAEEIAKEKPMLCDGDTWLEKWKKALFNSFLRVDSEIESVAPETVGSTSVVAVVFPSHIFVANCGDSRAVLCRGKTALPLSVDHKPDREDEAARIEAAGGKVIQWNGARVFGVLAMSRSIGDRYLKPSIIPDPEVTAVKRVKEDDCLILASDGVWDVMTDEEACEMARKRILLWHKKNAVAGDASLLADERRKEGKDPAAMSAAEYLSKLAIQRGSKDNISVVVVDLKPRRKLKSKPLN
Source text: Effects of the phytohormone abscisic acid (ABA) on the behaviour of plants under abiotic stress and the mechanism of action of ABA are described in the literature (cf. Abrams et al, WO97/23441, Cutler, Park et al. Science, 2009, 324, 1068; Grill et al. Science, 2009, 324, 1064; Tanokura et al. Biophysics, 2011, 7, 123; Schroeder et al. Plant J. 2010, 61, 290). Therefore, it is possible with the aid of a suitable in vitro test system to derive a correlation between the action of ABA and the stress response of a plant under abiotic stress. Under drought stress, plants form the phytohormone abscisic acid (ABA). This binds, along with a co-regulator (Regulatory Component of ABA-Receptor=RCAR according to Grill et al. Science, 2009, 324, 1064 or PYR/PYL according to Cutler et al. Science, 2009, 324, 1068), to a phosphatase (e.g. ABI1, a type 2C protein phosphatase, also abbreviated to PP2C) and inhibits its activity. As a result, a “downstream” kinase (e.g. SnRK2) is no longer dephosphorylated. This kinase, which is thus active, via phosphorylation of transcription factors (e.g. AREB/ABF, vgl. Yoshida et al., Plant J. 2010, 61, 672), switches on a genetic protection programme to increase drought stress tolerance.
The assay described hereinafter utilizes the inhibition of the phosphatase ABI1 via the co-regulator RCAR11/PYR1 aus Arabidopsis thaliana.
For the determination of activity, the dephosphorylation of 4-methylumbelliferyl phosphate (MUP) was measured at 460 nm. The in vitro assay was conducted in Greiner 384-well PS microplates F-well, using two controls: a) dimethyl sulphoxide (DMSO) 0.5% (f.c.) and b) 5 μM (f.c.) abscisic acid (ABA). […] The substance solution thus obtained, if necessary, was stirred with esterase from porcine liver (EC 3.1.1.1) at room temperature for 3 h and centrifuged at 4000 rpm for 30 min. A total volume of 45 μl was introduced into each cavity of the microplate, having the following composition: • 1) 5 μl of substance solution, i.e. a) DMSO 5% or b) abscisic acid solution or c) the corresponding example compound of the general formula (I) dissolved in 5% DMSO. • 2) 20 μl of enzyme buffer mix, composed of a) 40% by vol. of enzyme buffer (10 ml contain equal proportions by volume of 500 mM Tris-HCl pH8, 500 mM NaCl, 3.33 mM MnCl2, 40 mM dithiothreitol (DTT)), b) 4% by vol. of ABI1 dilution (protein stock solution was diluted so as to give, after addition, a final concentration in the assay of 0.15 μg ABI1/well), c) 4% by vol. of RCAR11 dilution (enzyme stock was diluted so as to give, on addition of the dilution to the enzyme buffer mix, a final concentration in the assay of 0.30 μg enzyme/well), d) 5% by vol. of Tween20 (1%), e) 47% by vol. H2O bi-dist. • 3) 20 μl of substrate mix, composed of a) 10% by vol. of 500 mM Tris-HCl pH8, b) 10% by vol. of 500 mM NaCl, c) 10% by vol. of 3.33 mM MnCl2, d) 5% by vol. of 25 mM MUP, 5% by vol. of Tween20 (1%), 60% by vol. of H2O bi-dist.
Enzyme buffer mix and substrate mix were made up 5 minutes prior to the addition and warmed to a temperature of 35° C. On completion of pipetting of all the solutions and on completion of mixing, the plate was incubated at 35° C. for 20 minutes. Finally, a relative fluorescence measurement was made at 35° C. with a BMG Labtech “POLARstar Optima” microplate reader using a 340/10 nm excitation filter and a 460 nm emission filter. The efficacy of the compounds of the general formula (I) is reported in the table which follows using abscisic acid (No. 64) as comparative substance according to the following classification: ++++ (inhibition≥90%), +++ (90%>inhibition≥70%), ++ (70%>inhibition≥50%), +(50%>inhibition≥30%).
Effects of selected compounds of the general formula (I) in the above-described in vitro assay at a concentration of 5 mM of the substance of the general formula (I) in question in a solution of DMSO and water: […]

[3] = test system: Brassica napus (BRSNS); experiment: In vivo analyses Part B: drought stress, appearance vs stressed control plants in categories (BRSNS); design: key: 0: no positive effect; 10: slight positive effect; 20: clear positive effect; 30: strong positive effect; conditions: category vs stressed control plants, 2-3 pots
Procedure: Seeds of monocotyledonous and dicotyledonous crop plants were sown in sandy loam in plastic pots, covered with soil or sand and cultivated in a greenhouse under good growth conditions. The test plants were treated at the early leaf stage (BBCH10-BBCH13). To assure uniform water supply before commencement of stress, the potted plants were supplied with water by dam irrigation prior to substance application. The inventive compounds, formulated in the form of wettable powders (WP), were sprayed onto the green parts of the plants as an aqueous suspension at an equivalent water application rate of 600 I/ha with addition of 0.2% wetting agent (e.g. agrotin). Substance application was followed immediately by stress treatment of the plants. Drought stress was induced by gradual drying out under the following conditions: “Day”: 14 hours with illumination at 26-30° C. “Night”: 10 hours without illumination at 18-20° C. The duration of the respective stress phases was guided mainly by the condition of the stressed control plants. It was ended (by re-irrigating and transfer to a greenhouse with good growth conditions) as soon as irreversible damage was observed on the stressed control plants. The end of the stress phase was followed by an about 4-7-day recovery phase, during which the plants were once again kept under good growth conditions in a greenhouse. The duration of the recovery phase was guided mainly by when the trial plants had attained a state which enabled visual scoring of potential effects, and was therefore variable. Once this juncture had been reached, the appearance of the plants treated with test substances was recorded in comparison to the stressed control plants by the following categories: [table] In order to rule out any influence on the effects observed by any fungicidal or insecticidal action of the test compounds, it was additionally ensured that the tests proceeded without fungal infection or insect infestation. For each substance and dosage, 2-3 pots were treated and evaluated. BRSNS=Brassica napus

| SMILES | ABI1 inhibition [2] | Effect (TRZAS) ([1]; dosage 25 g/ha) | Effect (BRSNS) ([3]; spray application 250 g/ha) | also measured |
| --- | --- | --- | --- | --- |
| CCOC(=O)C=C(C=CC(O)(C(C)C)C1(C#N)CC1)CC (racemic) [I.2-103] | – | – | – | Effect (TRZAS) ([1]; dosage 250 g/ha): 30 |
| CCC(C#CC(O)(C1(C#N)CC1)C12CC3CC(CC(C3)C1)C2)=CC(=O)OC (racemic) [I.1-738] | – | 10 | – | – |
| COC(=O)/C=C(\C=C\C(O)(C(C)C)C1(C#N)CC1)C(F)(F)F (stereo not shown) [I.2-120, Methyl (2E,4E)-6-(1-cyanocyclopropyl)-6-hydroxy-7-methyl-3-(trifluoro-methyl)octa-2,4-dienoate] | – | – | 30 | inhibition [2]: > 90% |
| CC/C(C#CC(O)(C(C)C)C1(C#N)CC1)=C/C(=O)NC1CC1 (stereo not shown) [I.1-157, (2Z)-6-(1-Cyanocyclopropyl)-N-cyclopropyl-3-ethyl-6-hydroxy-7-methyloct-2-en-4-ynamide] | – | 10 | – | – |
| CCOC(=O)C=C(C)C#CC(O)(C1(C#N)CC1)C12CC3CC(CC(C3)C1)C2 (racemic) [I.1-762] | – | – | – | Effect (TRZAS) ([1]; dosage 250 g/ha): 10 |
| COC(=O)/C=C(\C#CC(O)(C(C)C)C1(C#N)CC1)C(F)(F)F (stereo not shown) [I.1-120] | +++ (90%>inhibition≥70%) | – | 20 | – |
| COC(=O)/C=C(\C#CC(O)(C1CCC1)C1(C#N)CC1)C(F)(F)F (stereo not shown) [I.1-662] | ++++ (inhibition≥90%) | 10-20 | – | – |
| CC/C(C#CC(O)(c1ccc(F)cc1)C1(C#N)CC1)=C/C(=O)OCCOC (stereo not shown) [I.1-614] | ++++ (inhibition≥90%) | – | 10-20 | – |
| CC/C(C#CC(O)(C(C)C)C1(C#N)CC1)=C/C(=O)OCCOC (stereo not shown) [I.1-606, 2-Methoxyethyl (2Z)-6-(1-cyanocyclopropyl)-3-ethyl-6-hydroxy-7-methyloct-2-en-4-ynoate] | – | – | 20 | inhibition [2]: > 90% |
| COC(=O)C=C(C#CC(O)(C1(C#N)CC1)C12CC3CC(CC(C3)C1)C2)C(F)(F)F (racemic) [I.1-752] | – | 10 | – | – |
| CCOC(=O)C=C(C#CC(O)(C1(C#N)CC1)C12CC3CC(CC(C3)C1)C2)C(F)(F)F (racemic) [I.1-753] | – | 10 | – | – |
| CCOC(=O)/C=C(\C#CC(O)(c1ccc(F)cc1)C1(C#N)CC1)CC (stereo not shown) [I.1-503, Ethyl (2Z)-6-(1-cyanocyclopropyl)-3-ethyl-6-(4-fluorophenyl)-6-hydroxyhex-2-en-4-ynoate] | – | – | – | inhibition [2]: > 90%; Effect (BRSNS) ([3]; spray application 25 g/ha): 20-30 |

Further lines, with some results ahead:

| ABI1 inhibition [2] | SMILES | Effect (TRZAS) ([1]; dosage 25 g/ha) | Effect (BRSNS) ([3]; spray application 250 g/ha) | also measured |
| --- | --- | --- | --- | --- |
| ++++ (inhibition≥90%) | CCOC(=O)C=C(C)C#CC(O)(C(CC)CC)C1(C#N)CC1 (racemic) [I.1-732] | 10 | – | – |
| ++++ (inhibition≥90%) | CC/C(C#CC(O)(C(C)C)C1(C#N)CC1)=C/C(=O)OC (stereo not shown) [I.1-102] | – | 30 | – |
| ++++ (inhibition≥90%) | CCOC(=O)/C=C(/C)C#CC(O)(C1CCCCC1)C1(C#N)CC1 (stereo not shown) [I.1-702] | – | – | Effect (TRZAS) ([1]; dosage 250 g/ha): 10 |
| ++++ (inhibition≥90%) | COC(=O)/C=C(\C#CC(O)(C1CC1)C1(C#N)CC1)C(F)(F)F (stereo not shown) [I.1-632] | – | – | – |
| ++++ (inhibition≥90%) | CC/C(C#CC(O)(c1ccc(F)cc1)C1(C#N)CC1)=C/C(=O)OC (stereo not shown) [I.1-502] | – | 20-30 | – |
| +++ (90%>inhibition≥70%) | CCOC(=O)C=C(C)C#CC(O)(c1cccc(F)c1)C1(C#N)CC1 (racemic) [I.1-792] | – | – | – |
